The subject of one test is T1, GspInv.
T1 construct: secreted from Komagataella (Pichia) pastoris GS115 with alpha-factor signal of pPIC9K; cDNA 1,761 bp; primer-encoded N-terminus MVLADP, C-terminus FNRP; catalytic D46, D173, E251
Nature of the test: initial rate, released glucose by glucose oxidase method, Michaelis-Menten fit. It counts as biochemical, Gongronella sp. w5. Conditions: 50 mM citrate-phosphate pH 5.0, 45°C, 1 mM-2 M sucrose. An excerpt: initial rate, released glucose by glucose oxidase method, Michaelis-Menten fit on GspInv

A further test has as its system T2, CBM24DG-GspInv.
T2 construct: Clostridium thermocellum CBM24 fused to N-terminus of GspInv; secreted from K. pastoris GS115 (pPIC9K)
The test is described as above. It counts as biochemical, Gongronella sp. w5. As to conditions: 50 mM citrate-phosphate pH 5.0, 45°C, 1 mM-2 M sucrose; free (not immobilised) fusion enzyme. An excerpt: initial rate, released glucose by glucose oxidase method, Michaelis-Menten fit on CBM24DG-GspInv

The values below come from article PMC7160231, “Identification and Immobilization of an Invertase With High Specific Activity and Sucrose Tolerance Ability of Gongronella sp. w5 for High Fructose Syrup Preparation” (Frontiers in Microbiology, 2020).

One may read the Km as the concentration of substrate that gives half-maximal velocity. Regarding `OC[C@H]1O[C@@](CO)(O[C@H]2O[C@H](CO)[C@@H](O)[C@H](O)[C@H]2O)[C@@H](O)[C@@H]1O` [sucrose], the results for the Michaelis-Menten constant (Km) in the test on GspInv and in the test on CBM24DG-GspInv were 8.7 ± 1.1 mM and 10.3 ± 1.2 mM, respectively.
